Data published in patent publication US7371766B2, “Curcumin analogs with anti-tumor and anti-angiogenic properties” (Emory University, priority 1999, dated 2008).
Where two headings read alike, the source gives them in different places.

Experiments:
RPMI-7951 human melanoma = test: Neutral Red Assay, cell viability, RPMI-7951; conditions: for Cell Viability: RPMI-7951, DMSO = 100; for viability at 5 µM / viability at 20 µM: Homo sapiens
[1] = system: Vascular Endothelial Growth Factor (VEGF) production by human melanoma cell line RPMI-7951; test: VEGF ELISA, RPMI-7951; conditions: for VEGF / VEGF ELISA: RPMI-7951; for activity at 5 µM / activity at 20 µM: Homo sapiens, RPMI-7951, 72 h, read-out: VEGF; for VEGF ELISA: DMSO control 3713
[2] = system: Vascular Endothelial Growth Factor (VEGF) production by human prostate cancer cell line DU-145; test: VEGF ELISA, DU-145; format: cell-based; conditions: for VEGF (% of DMSO): DMSO = 100%
[3] = system: Vascular Endothelial Growth Factor (VEGF) production by human prostate cancer cell line PC-3; test: VEGF ELISA, PC-3; format: cell-based; conditions: for VEGF (% of DMSO): DMSO = 100%
[4] = system: Tissue Factor (TF) production by human melanoma cell line RPMI-7951; test: TF ELISA, RPMI-7951; format: cell-based
Protocol: IMUBIND Tissue Factor ELISA Kit (American Diagnostica Inc, Greenwich, Conn.) was used to determine TF concentration in each sample. The ELISA was carried out according to manufacturer's procedure.

[5] = 20 μM, mean of triplicate and S.D., DMSO 18760 ± 2633
[6] = Table 4, 20 μM, mean of triplicate and S.D.
[7] = 20 μM, mean of triplicate and S.D., DMSO 2103 ± 100
[8] = Table 5, 20 μM, DMSO control 7054
[9] = 5 μM, DMSO control 4197 (EF-25: 1045)
[10] = RPMI-7951, 72 h, read-out: Neutral Red Uptake, %
[11] = RPMI-7951, read-out: Cell Viability

SMILES: [O-][S+](/C=C\c1ccccc1)/C=C/c1ccccc1 (racemic) [EF14, E,Z3,5-Bisbenzylidenesulfoxide]
- Cell Viability (RPMI-7951 human melanoma; 20 μM): 86%
- VEGF ([1]; 20 μM, DMSO = 100): 36%

SMILES: COc1ccc(CCC(=O)CCc2ccc(OC)c(OC)c2)cc1OC [A]
- VEGF (% of DMSO) ([2]; 20 μM): (142%)
- VEGF [2, 5]: 26565 ± 9818 pg/mL
- VEGF ([2]; Table 4, 20 μM, DMSO = 100): 142%
- VEGF [2, 6]: 26565 ± 9818 pg/mL
- VEGF (% of DMSO) ([3]; 20 μM): (82%)
- VEGF [3, 7]: 1729 ± 59 pg/mL
- VEGF ([3]; Table 4, 20 μM, DMSO = 100): 82%
- VEGF [3, 6]: 1729 ± 59 pg/mL

SMILES: COc1ccc(CCC(=O)CCc2ccc(OC)cc2)cc1 [BA-1]
- TF ([4]; 20 μM, DMSO = 100): 95%
- TF [4, 8]: 6669 pg/mL

SMILES: COc1ccc(C=CC(=O)c2ccccc2)cc1OC [BA-3]
- TF ([4]; 20 μM, DMSO = 100): 30%
- TF [4, 8]: 2088 pg/mL
- Cell Viability (RPMI-7951 human melanoma; 5 μM): 93%
- Cell Viability (RPMI-7951 human melanoma; 20 μM): 102%
- VEGF ([1]; 5 μM, DMSO = 100): 116%
- VEGF [1, 9]: 4860 pg/mL
- VEGF ([1]; 20 μM, DMSO = 100): 48%
- VEGF ([1]; 20 μM, DMSO control 4197): 2035 pg/mL

SMILES: COc1ccc(C=CC(=O)C=Cc2ccc(OC)cc2)cc1 [BA-4]
- TF ([4]; 5 μM, DMSO = 100): 100%
- TF ([4]; 20 μM, DMSO = 100): 30%
- TF ([4]; Table 5, 5 μM, DMSO control 7054): 7043 pg/mL
- TF [4, 8]: 2120 pg/mL
- Cell Viability (RPMI-7951 human melanoma; 5 μM): 90%
- Cell Viability (RPMI-7951 human melanoma; 20 μM): 84%
- VEGF ([1]; 5 μM, DMSO = 100): 112%
- VEGF [1, 9]: 4708 pg/mL
- VEGF ([1]; 20 μM, DMSO = 100): 80%
- VEGF ([1]; 20 μM, DMSO control 4197): 3348 pg/mL

SMILES: COc1ccccc1C1CC(=O)CC(c2ccccc2OC)O1 (stereo not drawn) [BA-8]
- VEGF (% of DMSO) ([2]; 20 μM): (218%)
- VEGF [2, 5]: 40883 ± 6639 pg/mL
- VEGF ([2]; Table 4, 20 μM, DMSO = 100): 218%
- VEGF [2, 6]: 40883 ± 6639 pg/mL
- VEGF (% of DMSO) ([3]; 20 μM): (78%)
- VEGF [3, 7]: 1648 ± 229 pg/mL
- VEGF ([3]; Table 4, 20 μM, DMSO = 100): 78%
- VEGF [3, 6]: 1648 ± 229 pg/mL

SMILES: COc1ccc(CCC(O)CCc2ccc(OC)c(OC)c2)cc1OC [B]
- VEGF (% of DMSO) ([2]; 20 μM): (82%)
- VEGF [2, 5]: 15321 ± 5607 pg/mL
- VEGF ([2]; Table 4, 20 μM, DMSO = 100): 82%
- VEGF [2, 6]: 15321 ± 5607 pg/mL
- VEGF (% of DMSO) ([3]; 20 μM): (99%)
- VEGF [3, 7]: 2168 ± 279 pg/mL
- VEGF ([3]; Table 4, 20 μM, DMSO = 100): 103%
- VEGF [3, 6]: 2168 ± 279 pg/mL

SMILES: COc1ccc(CC2CCCC(Cc3ccc(OC)c(OC)c3)C2=O)cc1OC (stereo not drawn) [C]
- VEGF (% of DMSO) ([2]; 20 μM): (110%)
- VEGF [2, 5]: 20559 ± 9224 pg/mL
- VEGF ([2]; Table 4, 20 μM, DMSO = 100): 110%
- VEGF [2, 6]: 20559 ± 9224 pg/mL
- VEGF (% of DMSO) ([3]; 20 μM): (82%)
- VEGF [3, 7]: 1734 ± 397 pg/mL
- VEGF ([3]; Table 4, 20 μM, DMSO = 100): 82%
- VEGF [3, 6]: 1734 ± 397 pg/mL

SMILES: COc1cc(CC2CCCC(Cc3ccc(O)c(OC)c3)C2O)ccc1O (stereo not drawn) [Compound A231L]
- VEGF ([2]; Table 4, 20 μM, DMSO = 100): 149%
- VEGF [2, 6]: 27927 ± 4466 pg/mL
- VEGF ([3]; Table 4, 20 μM, DMSO = 100): 80%
- VEGF [3, 6]: 1687 ± 250 pg/mL
- Cell Viability (RPMI-7951 human melanoma; 20 μM): 77%
- VEGF ([1]; 20 μM, DMSO = 100): 25%

SMILES: COc1cc(CCC(=O)CC(=O)CCc2ccc(O)c(OC)c2)ccc1O [Compound A232]
- VEGF ([2]; Table 4, 20 μM, DMSO = 100): 135%
- VEGF [2, 6]: 25308 ± 4722 pg/mL
- VEGF ([3]; Table 4, 20 μM, DMSO = 100): 93%
- VEGF [3, 6]: 1955 ± 437 pg/mL
- Cell Viability (RPMI-7951 human melanoma; 20 μM): 78%
- VEGF ([1]; 20 μM, DMSO = 100): 40%

SMILES: COc1ccc(C=CC(O)CCc2ccc(OC)c(OC)c2)cc1OC (stereo not drawn) [Compound A239]
- VEGF ([2]; Table 4, 20 μM, DMSO = 100): 145%
- VEGF [2, 6]: 27229 ± 2148 pg/mL
- VEGF ([3]; Table 4, 20 μM, DMSO = 100): 80%
- VEGF [3, 6]: 1678 ± 293 pg/mL
- Cell Viability (RPMI-7951 human melanoma; 20 μM): 86%
- VEGF ([1]; 20 μM, DMSO = 100): 40%

SMILES: O=C(NCc1ccccc1)NCc1ccccc1 [Compound A271a]
- VEGF (% of DMSO) ([2]; 20 μM): (129%)
- VEGF [2, 5]: 24190 ± 2160 pg/mL
- VEGF ([2]; Table 4, 20 μM, DMSO = 100): 129%
- VEGF [2, 6]: 24190 ± 2160 pg/mL
- VEGF (% of DMSO) ([3]; 20 μM): (57%)
- VEGF [3, 7]: 1196 ± 438 pg/mL
- VEGF ([3]; Table 4, 20 μM, DMSO = 100): 57%
- VEGF [3, 6]: 1196 ± 438 pg/mL

SMILES: O=S(=O)(NCc1ccccc1)NCc1ccccc1 [Compound A272]
- VEGF ([2]; Table 4, 20 μM, DMSO = 100): 129%
- VEGF [2, 6]: 24155 ± 4635 pg/mL
- VEGF ([3]; Table 4, 20 μM, DMSO = 100): 89%
- VEGF [3, 6]: 1864 ± 339 pg/mL

SMILES: COc1ccc(CNS(=O)(=O)NCc2ccc(OC)c(OC)c2)cc1OC [Compound A277a]
- VEGF ([2]; Table 4, 20 μM, DMSO = 100): 146%
- VEGF [2, 6]: 27403 ± 3143 pg/mL
- VEGF ([3]; Table 4, 20 μM, DMSO = 100): 95%
- VEGF [3, 6]: 2007 ± 30 pg/mL

SMILES: COc1ccc(CNC(=O)NCc2ccc(OC)c(OC)c2)cc1OC [Compound A277b]
- VEGF ([2]; Table 4, 20 μM, DMSO = 100): 145%
- VEGF [2, 6]: 27124 ± 1346 pg/mL
- VEGF ([3]; Table 4, 20 μM, DMSO = 100): 89%
- VEGF [3, 6]: 1868 ± 38 pg/mL

SMILES: CN(C)/N=N/c1[nH]cnc1C(N)=O [Decabazine, Decarbazine, reference compound]
- viability at 5 µM (RPMI-7951 human melanoma; [10]): 100%
- viability at 20 µM (RPMI-7951 human melanoma; [10]): 100%
- viability at 5 µM (RPMI-7951 human melanoma; [11]): 91%
- viability at 20 µM (RPMI-7951 human melanoma; [11]): 99%
- activity at 5 µM [1]: 28%
- activity at 20 µM [1]: 31%
- VEGF ELISA ([1]; 5 μM): 1136 pg/ml/well
- VEGF [1, 9]: 1171 pg/mL
- VEGF ELISA ([1]; 20 μM): 1531 pg/ml/well
- VEGF ([1]; 20 μM, DMSO control 4197): 1293 pg/mL

SMILES: CON=C(/C=C/c1ccccc1O)/C=C/c1ccccc1O [EF6, N-(Methoxy)-1,5-bis(2-hydroxyphenyl)penta-1,4-dien-3-imine]
- viability at 20 µM (RPMI-7951 human melanoma; [11]): 72%
- activity at 20 µM [1]: 45%

SMILES: O=C(C=Cc1ccccc1F)C=Cc1ccccc1F [EF8, 1,5-Bis(2-fluorophenyl)penta-1,4-dien-3-one]
- viability at 5 µM (RPMI-7951 human melanoma; [10]): 97%
- viability at 20 µM (RPMI-7951 human melanoma; [10]): 8%
- viability at 5 µM (RPMI-7951 human melanoma; [11]): 94%
- viability at 20 µM (RPMI-7951 human melanoma; [11]): 54%
- activity at 5 µM [1]: 54%
- activity at 20 µM [1]: 1%
- VEGF ELISA ([1]; 5 μM): 2208 pg/ml/well
- VEGF [1, 9]: 2276 pg/mL
- VEGF ELISA ([1]; 20 μM): 319 pg/ml/well
- VEGF ([1]; 20 μM, DMSO control 4197): 35 pg/mL

SMILES: O=C(C=Cc1ccc(F)c(F)c1)C=Cc1ccc(F)c(F)c1 [EF10, 1,5-Bis(3,4-difluorophenyl)penta-1,4-dien-3-one]
- viability at 20 µM (RPMI-7951 human melanoma; [10]): 8%
- viability at 20 µM (RPMI-7951 human melanoma; [11]): 54%
- activity at 20 µM [1]: 5%
- VEGF ELISA ([1]; 20 μM): 257 pg/ml/well
- VEGF ([1]; 20 μM, DMSO control 4197): 217 pg/mL

SMILES: O=S(=O)(/C=C/c1ccccc1)/C=C/c1ccccc1 [EF12, 3,5-Bisbenzylidenesulfone]
- Cell Viability (RPMI-7951 human melanoma; 20 μM): 92%
- VEGF ([1]; 20 μM, DMSO = 100): 70%

SMILES: [O-][S+](/C=C/c1ccccc1)/C=C/c1ccccc1 [EF13, E,E-3,5-Bisbenzylidenesulfoxide]
- Cell Viability (RPMI-7951 human melanoma; 20 μM): 92%
- VEGF ([1]; 20 μM, DMSO = 100): 53%

SMILES: Oc1ccccc1CCC(O)CCc1ccccc1O [EF32, 1,5-Bis(2-hydroxyphenyl)-pentan-3-ol]
- TF ([4]; 20 μM, DMSO = 100): 123%
- TF [4, 8]: 8654 pg/mL

SMILES: O=C1CCC(N2C(=O)c3ccccc3C2=O)C(=O)N1 (stereo not drawn) [Thalidomide, reference compound]
- viability at 5 µM (RPMI-7951 human melanoma; [10]): 100%
- viability at 20 µM (RPMI-7951 human melanoma; [10]): 100%
- viability at 5 µM (RPMI-7951 human melanoma; [11]): 105%
- viability at 20 µM (RPMI-7951 human melanoma; [11]): 97%
- activity at 5 µM [1]: 44%
- activity at 20 µM [1]: 57%
- VEGF ELISA ([1]; 5 μM): 1810 pg/ml/well
- VEGF [1, 9]: 1865 pg/mL
- VEGF ELISA ([1]; 20 μM): 2827 pg/ml/well
- VEGF ([1]; 20 μM, DMSO control 4197): 2387 pg/mL
